Key:
[1] = molecular target: T1, Methylomonas sp. XPK (MeXPK) (Methylomonas sp. DH-1, UniProt A0A172UD65); test: acetyl phosphate formation, hydroxamate colorimetric assay; format: biochemical; conditions: F6P varied, 30 mM phosphate, pH 6.4, 1 mM TPP, 1 mM MgCl2; allosteric
T1 construct: same plasmid as SeXPK (N-terminal 6His tag), expressed in E. coli and purified
T1 sequence (A0A172UD65 1-788): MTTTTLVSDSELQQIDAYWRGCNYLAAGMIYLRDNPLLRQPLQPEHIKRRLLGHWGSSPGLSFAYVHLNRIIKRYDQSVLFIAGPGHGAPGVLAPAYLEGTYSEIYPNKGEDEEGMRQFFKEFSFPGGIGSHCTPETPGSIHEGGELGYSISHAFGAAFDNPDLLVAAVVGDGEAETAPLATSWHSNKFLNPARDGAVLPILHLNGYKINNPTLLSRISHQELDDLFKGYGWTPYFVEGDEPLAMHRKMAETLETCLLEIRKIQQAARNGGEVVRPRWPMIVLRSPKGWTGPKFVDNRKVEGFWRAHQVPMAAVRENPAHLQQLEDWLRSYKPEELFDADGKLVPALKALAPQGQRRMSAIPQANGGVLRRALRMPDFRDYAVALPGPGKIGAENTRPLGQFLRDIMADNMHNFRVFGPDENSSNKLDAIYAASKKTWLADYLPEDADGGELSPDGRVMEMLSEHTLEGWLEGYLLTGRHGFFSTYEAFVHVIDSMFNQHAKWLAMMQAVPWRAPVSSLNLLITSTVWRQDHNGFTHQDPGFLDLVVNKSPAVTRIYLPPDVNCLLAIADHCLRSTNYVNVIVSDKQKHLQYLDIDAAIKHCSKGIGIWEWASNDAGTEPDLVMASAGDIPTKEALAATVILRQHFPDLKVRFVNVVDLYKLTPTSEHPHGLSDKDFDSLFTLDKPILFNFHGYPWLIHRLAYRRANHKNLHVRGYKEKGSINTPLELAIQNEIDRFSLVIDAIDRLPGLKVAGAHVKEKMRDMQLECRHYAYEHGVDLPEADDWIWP
From the text: acetyl phosphate formation, hydroxamate colorimetric assay on Methylomonas sp.

[2] = molecular target: T2, SeXPK (Synechococcus elongatus, UniProt Q31LF9); test: as above; format: biochemical; conditions: F6P varied, 30 mM phosphate, pH 6.4, 1 mM TPP, 1 mM MgCl2; allosteric
T2 construct: gene Synpcc7942_2080; N-terminal 6His tag, pDC vector, E. coli; dodecamer of six dimers; purified with TPP/Mg2+
T2 sequence (Q31LF9 1-796): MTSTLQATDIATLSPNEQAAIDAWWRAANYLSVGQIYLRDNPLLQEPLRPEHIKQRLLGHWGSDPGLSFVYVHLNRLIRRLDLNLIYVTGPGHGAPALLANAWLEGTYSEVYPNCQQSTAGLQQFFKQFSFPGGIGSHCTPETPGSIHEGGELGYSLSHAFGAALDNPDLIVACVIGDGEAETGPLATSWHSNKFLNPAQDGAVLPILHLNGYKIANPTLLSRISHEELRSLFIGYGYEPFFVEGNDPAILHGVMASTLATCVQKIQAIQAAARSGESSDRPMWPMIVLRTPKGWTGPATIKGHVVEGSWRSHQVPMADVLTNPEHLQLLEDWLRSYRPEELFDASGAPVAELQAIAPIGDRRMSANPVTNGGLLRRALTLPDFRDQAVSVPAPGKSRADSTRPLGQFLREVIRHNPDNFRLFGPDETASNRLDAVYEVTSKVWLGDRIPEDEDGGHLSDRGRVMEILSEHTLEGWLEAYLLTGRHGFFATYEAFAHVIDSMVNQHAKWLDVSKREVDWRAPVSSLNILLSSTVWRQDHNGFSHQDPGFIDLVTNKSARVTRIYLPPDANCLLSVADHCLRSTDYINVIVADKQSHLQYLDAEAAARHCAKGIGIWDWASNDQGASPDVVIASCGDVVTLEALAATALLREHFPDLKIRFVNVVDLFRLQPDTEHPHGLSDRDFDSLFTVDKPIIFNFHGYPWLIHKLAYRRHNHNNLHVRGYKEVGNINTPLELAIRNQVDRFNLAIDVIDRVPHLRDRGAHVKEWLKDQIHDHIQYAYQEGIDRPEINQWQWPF

[3] = molecular target: T2, SeXPK; test: cryo-EM structure; format: binding; conditions: 2 mM AMPPNP; allosteric site at dimer interface, two per dimer, no Mg2+ bound; TPP/Mg2+ present
[4] = molecular target: Bifidobacterium longum phosphoketolase (B. longum XPK) (B. longum); test: cryo-EM structure; purified B. longum XPK with TPP/Mg2+, free form; D4 symmetry, focused refinement of one dimer
[5] = molecular target: T1, Methylomonas sp. XPK (MeXPK); test: acetyl phosphate formation, hydroxamate colorimetric assay; format: biochemical; conditions: 30 mM phosphate, pH 6.4, 1 mM TPP, 1 mM MgCl2; no ATP
From the text: acetyl phosphate formation, hydroxamate colorimetric assay on Methylomonas sp. XPK (MeXPK) | Methylomonas sp.

[6] = molecular target: T3, SeXPK (Synechococcus elongatus, UniProt Q31LF9, Y710A); test: as above; format: biochemical; conditions: 30 mM phosphate, pH 6.4, 1 mM TPP, 1 mM MgCl2; no ATP
T3 construct: gene Synpcc7942_2080; N-terminal 6His tag, pDC vector, E. coli; dodecamer of six dimers; purified with TPP/Mg2+
T3 sequence (Q31LF9 whole entry Y710A): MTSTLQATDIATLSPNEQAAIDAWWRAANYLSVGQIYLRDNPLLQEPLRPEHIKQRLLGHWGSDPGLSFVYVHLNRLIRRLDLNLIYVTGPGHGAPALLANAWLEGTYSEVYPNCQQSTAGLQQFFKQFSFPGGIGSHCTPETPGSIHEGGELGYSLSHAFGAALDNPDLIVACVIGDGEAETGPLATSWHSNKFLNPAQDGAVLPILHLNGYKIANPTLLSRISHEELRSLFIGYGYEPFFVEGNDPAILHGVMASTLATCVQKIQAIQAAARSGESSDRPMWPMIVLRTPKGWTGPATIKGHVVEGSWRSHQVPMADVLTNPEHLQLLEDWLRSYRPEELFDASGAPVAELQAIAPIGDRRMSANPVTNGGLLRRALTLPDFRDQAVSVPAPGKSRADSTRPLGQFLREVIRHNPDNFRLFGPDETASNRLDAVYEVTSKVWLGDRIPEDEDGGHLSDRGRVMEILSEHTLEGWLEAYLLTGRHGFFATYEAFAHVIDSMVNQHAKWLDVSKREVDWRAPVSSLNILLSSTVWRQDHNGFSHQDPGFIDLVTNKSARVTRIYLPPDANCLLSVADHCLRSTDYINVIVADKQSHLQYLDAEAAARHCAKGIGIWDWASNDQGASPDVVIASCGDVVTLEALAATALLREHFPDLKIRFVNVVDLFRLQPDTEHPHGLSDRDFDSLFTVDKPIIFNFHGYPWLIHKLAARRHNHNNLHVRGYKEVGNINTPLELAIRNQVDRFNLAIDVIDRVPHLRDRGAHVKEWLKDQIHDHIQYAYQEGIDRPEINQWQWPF

[7] = molecular target: T4, SeXPK (Synechococcus elongatus, UniProt Q31LF9, H706R); test: as above; format: biochemical; conditions: 30 mM phosphate, pH 6.4, 1 mM TPP, 1 mM MgCl2; no ATP
T4 construct: gene Synpcc7942_2080; N-terminal 6His tag, pDC vector, E. coli; dodecamer of six dimers; purified with TPP/Mg2+
T4 sequence (Q31LF9 whole entry H706R): as the sequence (Q31LF9 whole entry Y710A) above, with H706R, A710Y counted along it

[8] = molecular target: T5, SeXPK (Synechococcus elongatus, UniProt Q31LF9, H706A); test: as above; format: biochemical; conditions: 30 mM phosphate, pH 6.4, 1 mM TPP, 1 mM MgCl2; no ATP; most activity lost
T5 construct: gene Synpcc7942_2080; N-terminal 6His tag, pDC vector, E. coli; dodecamer of six dimers; purified with TPP/Mg2+
T5 sequence (Q31LF9 whole entry H706A): as the sequence (Q31LF9 whole entry Y710A) above, with H706A, A710Y counted along it

[9] = molecular target: the molecule itself; test: cryo-EM structure; purified SeXPK ~0.4 mg/ml (2.2 µM of dimer) in 20 mM HEPES-NaOH pH 7.2, 0.1 M NaCl, 0.2 mM TPP, 1 mM MgCl2; free and with 2 mM AMPPNP; D6 symmetry, focused refinement of one dimer

Nc1ncnc2c1ncn2[C@@H]1O[C@H](COP(=O)(O)OP(=O)(O)OP(=O)(O)O)[C@@H](O)[C@H]1O [ATP, adenosine-5′-triphosphate]
inhibition [1]: its allosteric inhibition by ATP was validated based on steady-state kinetics
inhibition at 0.5, 1 or 2 mM [2]: SeXPK is inhibited in vitro by ATP through an allosteric mode

Nc1ncnc2c1ncn2[C@@H]1O[C@H](COP(=O)(O)OP(=O)(O)NP(=O)(O)O)[C@@H](O)[C@H]1O [AMPPNP, phosphoaminophosphonic acid adenylate ester]
cryo-EM structure [3]: the two subunits jointly bind two AMPPNP

Bifidobacterium longum phosphoketolase (B. longum XPK) (enzyme)
stoichiometry N [4]: 8

O=P(O)(O)OC[C@H]1OC(O)(CO)[C@@H](O)[C@@H]1O (stereo partly drawn) [F6P]
Km [5]: Methylomonas sp. XPK (MeXPK) is also inhibited by ATP
acetyl phosphate formation, hydroxamate colorimetric assay [6]: Y710A mutant of SeXPK lost most activity
ATP sensitivity of activity [7]: H706R mutant of SeXPK shows only minor effect by ATP
acetyl phosphate formation, hydroxamate colorimetric assay [8]: H706A mutant of SeXPK lost most activity

B1: Synechococcus elongatus PCC7942 phosphoketolase (SeXPK) (enzyme)
chain: MTSTLQATDIATLSPNEQAAIDAWWRAANYLSVGQIYLRDNPLLQEPLRPEHIKQRLLGHWGSDPGLSFVYVHLNRLIRRLDLNLIYVTGPGHGAPALLANAWLEGTYSEVYPNCQQSTAGLQQFFKQFSFPGGIGSHCTPETPGSIHEGGELGYSLSHAFGAALDNPDLIVACVIGDGEAETGPLATSWHSNKFLNPAQDGAVLPILHLNGYKIANPTLLSRISHEELRSLFIGYGYEPFFVEGNDPAILHGVMASTLATCVQKIQAIQAAARSGESSDRPMWPMIVLRTPKGWTGPATIKGHVVEGSWRSHQVPMADVLTNPEHLQLLEDWLRSYRPEELFDASGAPVAELQAIAPIGDRRMSANPVTNGGLLRRALTLPDFRDQAVSVPAPGKSRADSTRPLGQFLREVIRHNPDNFRLFGPDETASNRLDAVYEVTSKVWLGDRIPEDEDGGHLSDRGRVMEILSEHTLEGWLEAYLLTGRHGFFATYEAFAHVIDSMVNQHAKWLDVSKREVDWRAPVSSLNILLSSTVWRQDHNGFSHQDPGFIDLVTNKSARVTRIYLPPDANCLLSVADHCLRSTDYINVIVADKQSHLQYLDAEAAARHCAKGIGIWDWASNDQGASPDVVIASCGDVVTLEALAATALLREHFPDLKIRFVNVVDLFRLQPDTEHPHGLSDRDFDSLFTVDKPIIFNFHGYPWLIHKLAYRRHNHNNLHVRGYKEVGNINTPLELAIRNQVDRFNLAIDVIDRVPHLRDRGAHVKEWLKDQIHDHIQYAYQEGIDRPEINQWQWPF
notes: phosphoketolase (XPK) of Synechococcus elongatus PCC7942, locus Synpcc7942_2080; Carries the coenzyme TPP/Mg2+; studied free and with 2 mM AMPPNP; Dodecamer of six dimers by cryo-EM; also called S. elongatus PCC7942 XPK; Synpcc7942_2080; source: E. coli DH5αDE3.1, purified (His-Tag resin, Q Sepharose, Superdex 200); copies: 12
stoichiometry N [9]: 12

Reference: publication PMC10365998, “An ATP-sensitive phosphoketolase regulates carbon fixation in cyanobacteria” (Nature Metabolism, 2023)
